Source: patent US12275731B2, “Azaindole inhibitors of wild-type and mutant forms of LRRK2” (DANA-FARBER CANCER INSTITUTE, INC., priority 2018, dated 2025)

Tests used:
Experiment in all cases: KinomeScan profiling
Format in all cases: binding
FLT3(K663Q) = target: T1, FLT3(K663Q) (Homo sapiens, UniProt P36888, K663Q); details: read-out: % control
T1 sequence (P36888 27-993 K663Q): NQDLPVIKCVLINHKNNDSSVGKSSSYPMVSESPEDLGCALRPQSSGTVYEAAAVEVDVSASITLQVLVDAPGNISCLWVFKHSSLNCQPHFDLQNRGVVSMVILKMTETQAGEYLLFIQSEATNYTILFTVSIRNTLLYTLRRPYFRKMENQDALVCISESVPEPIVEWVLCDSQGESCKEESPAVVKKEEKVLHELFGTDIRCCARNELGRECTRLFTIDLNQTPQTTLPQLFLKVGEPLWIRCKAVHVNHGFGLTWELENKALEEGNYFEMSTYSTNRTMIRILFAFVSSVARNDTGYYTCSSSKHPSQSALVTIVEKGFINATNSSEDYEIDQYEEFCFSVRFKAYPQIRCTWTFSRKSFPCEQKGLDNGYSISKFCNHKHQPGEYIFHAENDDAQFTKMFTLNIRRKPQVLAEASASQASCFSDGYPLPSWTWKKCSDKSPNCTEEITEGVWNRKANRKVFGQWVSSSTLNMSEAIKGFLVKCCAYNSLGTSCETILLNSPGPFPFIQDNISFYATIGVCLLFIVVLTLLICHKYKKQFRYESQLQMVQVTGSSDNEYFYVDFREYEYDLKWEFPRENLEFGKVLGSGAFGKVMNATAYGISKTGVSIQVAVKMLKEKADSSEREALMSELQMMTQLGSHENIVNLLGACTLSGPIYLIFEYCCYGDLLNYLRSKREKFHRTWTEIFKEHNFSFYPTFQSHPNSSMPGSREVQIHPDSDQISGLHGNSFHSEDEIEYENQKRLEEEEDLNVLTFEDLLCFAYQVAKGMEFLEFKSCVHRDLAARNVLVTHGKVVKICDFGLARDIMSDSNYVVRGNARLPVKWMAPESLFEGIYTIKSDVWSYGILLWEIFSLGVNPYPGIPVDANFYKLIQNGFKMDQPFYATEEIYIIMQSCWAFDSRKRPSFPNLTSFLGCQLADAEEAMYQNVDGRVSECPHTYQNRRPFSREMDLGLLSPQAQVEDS
Outline: (§1)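 Test agents were profiled at a single concentration of 1 μM (DMSO vehicle) on a near-complete set of 468 kinases. Signal is reported relative to vehicle (100%) and a fully displacing control (0%).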

HPK1 = HPK1 (Homo sapiens, UniProt Q92918); details: HPK1, 1 μM; read-out: % control
Outline: as §1

[1] = target: T2, RSK4(Kin.Dom.2-C-terminal) (Homo sapiens, UniProt Q9UK32); details: read-out: % control
T2 construct: RSK4(Kin.Dom.2-C-terminal)
T2 sequence (Q9UK32 426-683 limits assumed): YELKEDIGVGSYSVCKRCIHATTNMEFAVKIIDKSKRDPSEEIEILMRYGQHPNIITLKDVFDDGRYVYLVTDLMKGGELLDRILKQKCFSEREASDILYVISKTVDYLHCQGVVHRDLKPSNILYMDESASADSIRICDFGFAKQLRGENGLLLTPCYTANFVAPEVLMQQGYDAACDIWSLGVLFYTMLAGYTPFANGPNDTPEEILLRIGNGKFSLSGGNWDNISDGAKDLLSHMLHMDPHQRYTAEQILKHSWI
Outline: as §1

SRC = target: T3, SRC (Homo sapiens, UniProt P12931); details: read-out: % control
T3 construct: purchased KinomeScan® (panel service)
Outline: as §1

p38-delta = target: T4, p38-delta (Homo sapiens, UniProt O15264); details: read-out: % control
T4 sequence (O15264 1-365): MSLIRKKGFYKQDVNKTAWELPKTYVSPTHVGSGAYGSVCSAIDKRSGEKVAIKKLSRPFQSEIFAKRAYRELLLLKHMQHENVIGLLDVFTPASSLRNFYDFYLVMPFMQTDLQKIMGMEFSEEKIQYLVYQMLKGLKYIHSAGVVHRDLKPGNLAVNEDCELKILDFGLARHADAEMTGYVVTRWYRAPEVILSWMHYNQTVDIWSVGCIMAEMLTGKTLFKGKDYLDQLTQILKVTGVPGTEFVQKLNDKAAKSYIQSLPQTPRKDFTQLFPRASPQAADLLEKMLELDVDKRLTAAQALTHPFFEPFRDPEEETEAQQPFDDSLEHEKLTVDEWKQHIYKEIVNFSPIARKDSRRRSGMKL
Outline: as §1

T3 sequence (P12931 whole entry): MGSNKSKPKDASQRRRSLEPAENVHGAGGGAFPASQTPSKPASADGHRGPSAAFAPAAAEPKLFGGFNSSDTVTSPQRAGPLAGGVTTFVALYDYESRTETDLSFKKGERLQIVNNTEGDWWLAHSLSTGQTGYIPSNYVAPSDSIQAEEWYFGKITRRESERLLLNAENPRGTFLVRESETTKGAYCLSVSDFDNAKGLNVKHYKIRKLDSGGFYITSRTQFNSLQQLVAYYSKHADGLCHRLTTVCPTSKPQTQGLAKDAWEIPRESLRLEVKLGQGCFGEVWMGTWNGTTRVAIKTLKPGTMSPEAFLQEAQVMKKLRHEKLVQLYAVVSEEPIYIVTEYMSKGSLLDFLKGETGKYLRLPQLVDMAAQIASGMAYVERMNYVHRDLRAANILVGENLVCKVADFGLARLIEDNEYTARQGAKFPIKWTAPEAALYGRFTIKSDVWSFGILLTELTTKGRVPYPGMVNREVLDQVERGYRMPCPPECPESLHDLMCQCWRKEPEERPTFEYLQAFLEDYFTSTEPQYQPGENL
HPK1, sequence (Q92918 whole entry): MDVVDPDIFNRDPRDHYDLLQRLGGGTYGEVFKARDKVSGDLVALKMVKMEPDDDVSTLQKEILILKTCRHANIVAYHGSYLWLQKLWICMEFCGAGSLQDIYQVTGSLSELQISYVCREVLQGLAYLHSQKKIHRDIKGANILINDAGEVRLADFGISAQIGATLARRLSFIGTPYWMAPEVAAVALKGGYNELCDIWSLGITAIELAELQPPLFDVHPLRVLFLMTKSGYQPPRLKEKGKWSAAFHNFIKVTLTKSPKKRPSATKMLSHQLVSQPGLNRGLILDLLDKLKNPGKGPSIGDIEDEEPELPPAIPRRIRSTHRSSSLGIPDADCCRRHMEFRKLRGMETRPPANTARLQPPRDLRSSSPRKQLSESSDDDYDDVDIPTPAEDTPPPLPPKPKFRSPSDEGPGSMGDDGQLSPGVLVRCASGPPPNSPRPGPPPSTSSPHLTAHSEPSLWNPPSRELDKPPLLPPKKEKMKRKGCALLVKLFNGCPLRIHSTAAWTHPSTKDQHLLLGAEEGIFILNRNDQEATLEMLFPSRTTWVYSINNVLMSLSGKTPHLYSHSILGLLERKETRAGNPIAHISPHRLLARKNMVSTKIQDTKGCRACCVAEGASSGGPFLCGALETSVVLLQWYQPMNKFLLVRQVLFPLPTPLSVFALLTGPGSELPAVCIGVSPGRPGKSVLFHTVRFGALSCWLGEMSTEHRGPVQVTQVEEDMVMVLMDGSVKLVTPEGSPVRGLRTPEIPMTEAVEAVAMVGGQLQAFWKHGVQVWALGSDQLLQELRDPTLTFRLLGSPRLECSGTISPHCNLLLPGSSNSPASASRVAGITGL

Row | Structure (SMILES) | remaining binding at 1 µM (FLT3(K663Q)) [%] | remaining binding at 1 µM (HPK1) [%] | remaining binding at 1 µM [1] [%] | remaining binding at 1 µM (SRC) [%] | remaining binding at 1 µM (p38-delta) [%]
1 | CNc1c(-c2cnn([C@H]3CCN(C(C)=O)C[C@@H]3F)c2)cnc2[nH]cc(Cl)c12 [Compound 77, 1-((3S,4S)-4-(4-(3-chloro-4-(methylamino)-1H-pyrrolo[2,3-b]pyridin-5-yl)-1H-pyrazol-1-yl)-3-fluoropiperidin-1-yl)ethan-1-one] | 15 | 6.7 | 98 | 99 | 96
2 | O=C(c1ccc(-c2cnc3[nH]cc(Cl)c3c2NC2CCCC2)cc1)N1CCC(N2CCOCC2)CC1 [Compound 101, (4-(3-chloro-4-(cyclopentylamino)-1H-pyrrolo[2,3-b]pyridin-5-yl)phenyl)(4-morpholinopiperidin-1-yl)methanone] | 28 | 53 | 88 | 100 | 94
3 | CNc1c(-c2ccc(C(=O)N3CCC(N4CCOCC4)CC3)cc2)cnc2[nH]cc(Cl)c12 [Compound 96, (4-(3-chloro-4-(methylamino)-1H-pyrrolo[2,3-b]pyridin-5-yl)phenyl)(4-morpholinopiperidin-1-yl)methanone] | 15 | 84 | 91 | 100 | 99
